Laboratory results taken from US6956139B2, “(1R, 2S, 5R)-3-1-menthoxyalkan-1-OL cooling sensate” (Takasago International Corporation, priority 2000, dated 2005).

System: evaluators
Experiment: Six evaluators swished a 150 ppm solution of each compound; flavor quality and cooling reported at intervals after spitting out
Assay type: in vivo, human
Settings: for quality of the flavor and cooling characteristics, 30 Minutes: 10 ml of 150 ppm solution swished 15 seconds and spit out, 30 minutes after spitting out; for Peak cool at (time) / cooling lasting (duration): 10 ml of 150 ppm solution swished 15 seconds, time after spitting out
Experimental: The enantiomeric compounds of the present invention, Examples 1 through 3 (E1, E2 and E3), were tested against the prior art racemic mixture of 2-(5-methyl-2-(methylethyl)-cyclohexyloxy)-ethan-1-ol (C1). Six evaluators swished 10 ml of a 150 ppm solution of each compound for 15 seconds and spit out. The quality of the flavor and cooling characteristics were reported at various intervals after spitting out.

Structure (SMILES) | quality of the flavor and cooling characteristics, 30 Minutes | Peak cool at (time) [min] | cooling lasting (duration)
CC(C)[C@@H]1CC[C@@H](C)C[C@H]1OCCCCO [Example E3, [1′R,2′S,5′R]-4-(5′-methyl-2′-(methylethyl)cyclohexyloxy)butan-1-ol] | cooling | 7 | –
CC1CCC(C(C)C)C(OCCO)C1 (centres unmarked) [Example C1, (d,l)-2-(5′-methyl-2′-(methylethyl)cyclohexyloxy)ethan-1-ol, reference compound] | no cooling | – | 10 to 15 min
CC(C)[C@@H]1CC[C@@H](C)C[C@H]1OCCO [Example E1, [1′R,2′S,5′R]-2-(5′-methyl-2′-(methylethyl)cyclohexyloxy)ethan-1-ol] | cooling | 15 | –
CC(C)[C@@H]1CC[C@@H](C)C[C@H]1OCCCO [Example E2, [1′R,2′S,5′R]-3-(5′-methyl-2′-(methylethyl)cyclohexyloxy)propan-1-ol] | – | 10 to 13 | cooling 30+ min.
